Measured values published in ChEMBL document CHEMBL4354805, “Discovery of MK-8719, a Potent O-GlcNAcase Inhibitor as a Potential Treatment for Tauopathies” (J Med Chem, 2019).

What was measured:
[1] = Oral bioavailability in rhesus monkey at 3 mg/kg; format: ADME, organism-based, Macaca mulatta; conditions: in vivo
[2] = Protein binding in dog plasma; format: ADME, cell-free, Canis lupus familiaris; conditions: read-out: PPB
[3] = molecular target: T1, Protein O-GlcNAcase (Rattus norvegicus, UniProt Q8VIJ5); experiment: Inhibition of OGA in rat PC12 cells assessed as OGlcNAcylated protein level incubated for 24 hrs by ELISA; format: cell-based
T1 sequence (Q8VIJ5 whole entry): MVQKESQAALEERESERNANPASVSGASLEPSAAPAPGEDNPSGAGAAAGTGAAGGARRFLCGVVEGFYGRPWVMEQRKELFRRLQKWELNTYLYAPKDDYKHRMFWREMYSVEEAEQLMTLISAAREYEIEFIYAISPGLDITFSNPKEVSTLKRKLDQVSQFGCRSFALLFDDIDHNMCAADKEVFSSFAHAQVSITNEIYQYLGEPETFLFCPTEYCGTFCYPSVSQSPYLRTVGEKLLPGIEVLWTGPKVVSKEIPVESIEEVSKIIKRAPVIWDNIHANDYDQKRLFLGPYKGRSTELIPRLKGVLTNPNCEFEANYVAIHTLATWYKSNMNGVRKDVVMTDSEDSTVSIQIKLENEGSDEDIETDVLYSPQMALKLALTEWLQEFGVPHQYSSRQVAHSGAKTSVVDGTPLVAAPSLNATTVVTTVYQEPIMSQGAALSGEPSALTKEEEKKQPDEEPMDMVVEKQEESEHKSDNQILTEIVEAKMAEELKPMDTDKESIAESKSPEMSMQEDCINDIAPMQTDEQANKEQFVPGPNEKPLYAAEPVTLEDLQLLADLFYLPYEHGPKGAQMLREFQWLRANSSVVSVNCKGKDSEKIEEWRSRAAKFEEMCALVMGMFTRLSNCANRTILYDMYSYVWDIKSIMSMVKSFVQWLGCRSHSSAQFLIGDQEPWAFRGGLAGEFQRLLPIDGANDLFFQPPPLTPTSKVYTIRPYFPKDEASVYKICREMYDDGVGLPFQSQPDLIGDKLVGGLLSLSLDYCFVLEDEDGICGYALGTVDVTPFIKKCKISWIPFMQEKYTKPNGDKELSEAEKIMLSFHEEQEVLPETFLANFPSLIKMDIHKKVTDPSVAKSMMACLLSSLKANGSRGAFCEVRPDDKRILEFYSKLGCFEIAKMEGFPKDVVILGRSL

[4] = Ratio of drug level in dog blood to plasma; format: ADME, cell-free, Canis lupus familiaris; conditions: whole blood

bioavailability [1]: 9%
fraction unbound [2]: > 0.95
EC50 [3]: 52.7 nM
blood plasma ratio [4]: 0.9 to 1.1
SMILES: CCNC1=N[C@@H]2[C@@H](O)[C@H](O)[C@@H](C(F)F)O[C@@H]2S1
